Experimental data as given in patent publication US10016378B2, “Compositions and methods for inhibiting intimal hyperplasia” (priority 2014, dated 2018).
Entries after “also recorded” stand apart in the source; their conditions may differ.

Key:
[1] = system: balloon-injured rat aortas; test: Balloon injury (abdominal aortic denudation) of Lewis rat aortas; type: in vivo, Lewis rats
Description: For example, abdominal aortic denudation in Lewis rats was performed to induce neointimal proliferation. […] The development of intimal hyperplasia was analyzed by histopathology. Confocal immunofluorescence microscopy and 3-dimensional reconstruction was performed to identify cell proliferation (Ki67) and apoptosis (TUNEL).

[2] = Side-effects in the various in vivo models
human vascular SMCs = test: Cultured human vascular SMCs, PDGF stimulation / staurosporine apoptosis induction; type: cell-based; settings: VDAC closure/inhibition
Excerpt: Proliferation and apoptosis leveled off after twenty eight (28) days when there was also no further progression of myointimal disease (FIGS. 1c, 1e). […] Human vascular SMCs were isolated from fresh hMA and characterized (Extended Data FIGS. 4e-4f). PDGF was then shown to induce ΔΨm hyperpolarization in cultured SMCs (Extended Data FIG. 4g), similar to the ΔΨm hyperpolarization previous observed in injured hMAs (FIG. 1f). Thus, mitochondrial ΔΨm hyperpolarization in myointimal SMCs and cultured SMCs coincided with the availability of PDGF.

O=C(O)C(Cl)Cl [DCA, dichloroacetate]
luminal obliteration (intimal hyperplasia) ([1]; DCA treatment for 28 days via drinking water (0.75 g/L), p=0.006 vs. untreated 28-day control (24.2±3.5%)): 7.9±6.3%
luminal obliteration (neointimal formation) ([1]; delayed DCA treatment starting on day 14, p=0.001 vs. untreated 28-day control): 3.5±2.9%
vessel re-endothelialization ([1]; in vivo, after mechanical endothelial denudation): does not impair; also recorded: did not prevent vessel re-endothelialization; also recorded: nor inhibited vessel re-endothelialization
side-effects or off-target effects [2]: didn't show any side-effects or off-target effects

O=S(=O)(O)c1cc(N=C=S)ccc1C=Cc1ccc(N=C=S)cc1S(=O)(=O)O [DIDS]
SMC ΔΨm (human vascular SMCs): caused ΔΨm hyperpolarization; also recorded: increased
apoptosis (human vascular SMCs; staurosporine-induced): rendered SMCs resistant; also recorded: reduced

Cc1ccc(NC(=O)c2ccc(CN3CCN(C)CC3)cc2)cc1Nc1nccc(-c2cccnc2)n1 [imatinib]
myointimal lesions ([1]; compared to untreated control 28 vessels): only minor lesions
